Values quoted from earlier work in patent publication US20040006103A1, “Use of chloroquine, hydroxychloroquine and 4 amino-quinolinic derivatives to obtain a drug for the anti retroviral therapy, active towards HIV sensitive strains and towards HIV strains which are resistant to both nucleosidic and non-nucleosidic reverse transcriptase inhibitors and to proteases …” (VALPHARMA S.A., priority 2002, published 2004).

Columns and labels:
HIV [1] = settings: in vitro, cited from earlier work
HIV [2] = settings: 800 mg/day, compared to placebo; Sperber et al. 1997; cited from earlier work
HIV-1 [3] = settings: Sperber (1993), cited from earlier work
[4] = plasmatic concentrations 7 to 15 microM, prolonged over 18-24 months; Lange (1994); cited from earlier work
HIV-1 [5] = settings: 800 mg/day, 8 weeks, Sperber et al. (1995), cited from earlier work
HIV [6] = settings: cited from earlier work
HIV-1 [7] = settings: association hydroxychloroquine (400 mg/day) plus HU plus ddI, 48 weeks, Paton et al. 2002, cited from earlier work
HIV [8] = settings: continuous cultures of cells from the lymphocyte system; Tsai (1990); cited from earlier work

Row | Compound | effect on inhibition of the HIV replication when added to ddI plus HU (HIV [1]; Boelaert et al. (1999)) | effect when added to the association AZT plus HU (HIV [1]; Boelaert et al. (2001)) | plasmatic HIV-RNA (HIV [2]) | production of infecting viral particles (HIV-1 [3]; CEM cells used as target) | inhibition of HIV-1 replication (HIV-1 [3]; PBMC, U-937, CEM) | toxic effect in cell cultures (HIV-1 [3]; concentration suitable for inhibit viral replication) | retinopathy [4] | quantity of HIV-RNA (HIV-1 [5]; asymptomatic HIV-1 positive patients) | negative events (HIV-1 [5]) | negative events (HIV [6]; 16 weeks, hydroxychloroquine 800 mg/day, AZT 500 mg/day) | patients with an increase of plasmatic viremia (HIV [6]; at the 8th and at the 16th week) | decrement of plasmatic HIV-RNA (HIV-1 [7]; 22 patients) | tolerability (HIV-1 [7]) | inhibition of the HIV replicative cycle (HIV [8])
1 | CCN(CCO)CCCC(C)Nc1ccnc2cc(Cl)ccc12 (centres unmarked) [HCQ, hydroxychloroquine] | extra effect | additional effect | significant reduction | almost completely inhibits | > 75% | no toxic effect was found | rarely induced retinopathy | significantly decreased | No negative event was observed | no negative events were observed | nobody | 1.3 logs | well tolerated | 
2 | CCN(CC)CCCC(C)Nc1ccnc2cc(Cl)ccc12 (centres unmarked) [CQ, chloroquine] |  |  |  |  |  |  |  |  |  |  |  |  |  | inhibits the HIV replicative cycle
